Experimental data as given in patent US9833497B2, “Human originated EGF domain proteins and use of the same” (CHENGDU SOURCEBIO LIMITED-LIABILITY COMPANY, priority 2013, dated 2017).

Legend:
Assay type in all cases: cell-based
E. coli DH5α = assay: Antibacterial activity: MIC and growth curve against E. coli DH5α in 96-well plate; conditions: minimal inhibitory concentration against E. coli DH5α; 96-well plate, 5×10^5 CFU/mL, 37° C., judged after 8 h
Method in brief: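 Log-phase DH5α (OD600 about 0.5, 37° C, 185 rpm in LB) was pelleted, resuspended in fresh LB and seeded at 5×10^5 CFU/mL with recombinant protein at 50, 25 and 12.5 μg/mL (two-fold series), in triplicate. Plates were shaken at 175 rpm, 37° C, and OD600 was read every 30 min. MIC was the lowest concentration with no growth.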

E. coli BL21 = assay: MIC against Gram-negative bacteria: E. coli BL21
Method in brief: (§1)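 Bacteria grown in LB at 37° C with shaking to McFarland 0.5, pelleted and resuspended in fresh LB, then seeded at 5×10^5 CFU/mL per well. Purified recombinant human EGF domain proteins were two-fold serially diluted in triplicate and plates shaken at 37° C, 175 rpm. MIC is the lowest protein concentration with no bacterial growth.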

Pseudomonas aeruginosa = assay: MIC against Gram-negative bacteria: Pseudomonas aeruginosa; conditions: for MIC against P. aeruginosa: Pseudomonas aeruginosa
Method in brief: as §1

Klebsiella pneumonia = assay: MIC against Gram-negative bacteria: Klebsiella pneumonia; conditions: for MIC against K. pneumonia: Klebsiella pneumonia
Method in brief: as §1

Enterobacter cloacae = assay: MIC against Gram-negative bacteria: Enterobacter cloacae; conditions: for MIC against E. cloacae: Enterobacter cloacae
Method in brief: as §1

Aeromonas hydrophila = assay: MIC against Gram-negative bacteria: Aeromonas hydrophila; conditions: for MIC against A. hydrophila: Aeromonas hydrophila
Method in brief: as §1

Citrobacter diversus = assay: MIC against Gram-negative bacteria: Citrobacter diversus; conditions: for MIC against C. diversus: Citrobacter diversus
Method in brief: as §1

Moraxella catarrhalis = assay: MIC against Gram-negative bacteria: Moraxella catarrhalis; conditions: for MIC against M. catarrhalis: Moraxella catarrhalis
Method in brief: as §1

Proteus mirabilis = assay: MIC against Gram-negative bacteria: Proteus mirabilis; conditions: for MIC against P. mirabilis: Proteus mirabilis
Method in brief: as §1

Proteus vulgaris = assay: MIC against Gram-negative bacteria: Proteus vulgaris; conditions: for MIC against P. vulgaris: Proteus vulgaris
Method in brief: as §1

Serratia marcescens = assay: MIC against Gram-negative bacteria: Serratia marcescens; conditions: for MIC against S. marcescens: Serratia marcescens
Method in brief: as §1

[1] = E. coli BL21, 5×10^5 CFU/mL, 10 h cultivation at 37° C.
[2] = 5×10^5 CFU/mL, 10 h cultivation at 37° C.
[3] = 96-well plate, 5×10^5 CFU/mL, 37° C., 10 h
[4] = E. coli BL21, 10 h cultivation at 37° C.
[5] = P. aeruginosa, 10 h cultivation at 37° C.
[6] = K. pneumonia, 10 h cultivation at 37° C.
[7] = E. cloacae, 10 h cultivation at 37° C.
[8] = A. hydrophila, 10 h cultivation at 37° C.
[9] = C. diversus, 10 h cultivation at 37° C.
[10] = M. catarrhalis, 10 h cultivation at 37° C.
[11] = P. mirabilis, 10 h cultivation at 37° C.
[12] = P. vulgaris, 10 h cultivation at 37° C.
[13] = S. marcescens, 10 h cultivation at 37° C.

PRT1374 (GVRQCPNDCSQHGVCQDGVCICWEGYVSEDC; listed as Homo sapiens)
MIC (E. coli DH5α): 50 µg/mL | MIC against E. coli BL21 (E. coli BL21; [1]): 12.5 µg/mL | MIC against P. aeruginosa (Pseudomonas aeruginosa; [2]): 25 µg/mL | MIC against K. pneumonia (Klebsiella pneumonia; [2]): 12.5 µg/mL | MIC against E. cloacae (Enterobacter cloacae; [2]): 25 µg/mL | MIC against A. hydrophila (Aeromonas hydrophila; [2]): 12.5 µg/mL | MIC against C. diversus (Citrobacter diversus; [2]): 12.5 µg/mL | MIC against M. catarrhalis (Moraxella catarrhalis; [2]): 12.5 µg/mL | MIC against P. mirabilis (Proteus mirabilis; [2]): 12.5 µg/mL | MIC against P. vulgaris (Proteus vulgaris; [2]): 12.5 µg/mL | MIC against S. marcescens (Serratia marcescens; [2]): 12.5 µg/mL

PRT1458 (CNCHLSGALNETCHLVTGQCFCKQFVTGSKCDACVPSASHLDVNNLLGCSK; listed as Homo sapiens)
MIC (E. coli DH5α): 12.5 µg/mL | MIC against E. coli BL21 (E. coli BL21; [1]): 12.5 µg/mL | MIC against P. aeruginosa (Pseudomonas aeruginosa; [2]): 25 µg/mL | MIC against K. pneumonia (Klebsiella pneumonia; [2]): 12.5 µg/mL | MIC against E. cloacae (Enterobacter cloacae; [2]): 25 µg/mL | MIC against A. hydrophila (Aeromonas hydrophila; [2]): 50 µg/mL | MIC against C. diversus (Citrobacter diversus; [2]): 25 µg/mL | MIC against M. catarrhalis (Moraxella catarrhalis; [2]): 25 µg/mL | MIC against P. mirabilis (Proteus mirabilis; [2]): 12.5 µg/mL | MIC against P. vulgaris (Proteus vulgaris; [2]): 25 µg/mL | MIC against S. marcescens (Serratia marcescens; [2]): 50 µg/mL

PRT778 (QNQSCPVNYCYNQGHCYISQTLGCQPMCTCPPAFTDSRCF; listed as Homo sapiens)
MIC (E. coli DH5α): 50 µg/mL | MIC (μg/mL) E. coli BL21 (E. coli BL21; E. coli BL21, 10 h cultivation at 37° C., 5×10^5 CFU/mL): 12.5 µg/mL | MIC (μg/mL) P. aeruginosa (Pseudomonas aeruginosa; P. aeruginosa, 10 h cultivation at 37° C., 5×10^5 CFU/mL): 50 µg/mL | MIC (μg/mL) K. pneumonia (Klebsiella pneumonia; K. pneumonia, 10 h cultivation at 37° C., 5×10^5 CFU/mL): 12.5 µg/mL | MIC (μg/mL) E. cloacae (Enterobacter cloacae; E. cloacae, 10 h cultivation at 37° C., 5×10^5 CFU/mL): 50 µg/mL | MIC (μg/mL) A. hydrophila (Aeromonas hydrophila; A. hydrophila, 10 h cultivation at 37° C., 5×10^5 CFU/mL): 12.5 µg/mL | MIC (μg/mL) C. diversus (Citrobacter diversus; C. diversus, 10 h cultivation at 37° C., 5×10^5 CFU/mL): 12.5 µg/mL | MIC (μg/mL) M. catarrhalis (Moraxella catarrhalis; M. catarrhalis, 10 h cultivation at 37° C., 5×10^5 CFU/mL): 12.5 µg/mL | MIC (μg/mL) P. mirabilis (Proteus mirabilis; P. mirabilis, 10 h cultivation at 37° C., 5×10^5 CFU/mL): 12.5 µg/mL | MIC (μg/mL) P. vulgaris (Proteus vulgaris; P. vulgaris, 10 h cultivation at 37° C., 5×10^5 CFU/mL): 25 µg/mL | MIC (μg/mL) S. marcescens (Serratia marcescens; S. marcescens, 10 h cultivation at 37° C., 5×10^5 CFU/mL): 12.5 µg/mL

PRT732 (SVNPCAFSRCSHLCLLSSQGPHFYSCVCPSGWSLSPDLLNCL; listed as Homo sapiens)
MIC (E. coli DH5α): 12.5 µg/mL | MIC E. coli BL21 (E. coli BL21; [3]): 50 µg/mL | MIC P. aeruginosa (Pseudomonas aeruginosa; [3]): 12.5 µg/mL | MIC K. pneumonia (Klebsiella pneumonia; [3]): 50 µg/mL | MIC E. cloacae (Enterobacter cloacae; [3]): 25 µg/mL | MIC A. hydrophila (Aeromonas hydrophila; [3]): 12.5 µg/mL | MIC C. diversus (Citrobacter diversus; [3]): 25 µg/mL | MIC M. catarrhalis (Moraxella catarrhalis; [3]): 50 µg/mL | MIC P. mirabilis (Proteus mirabilis; [3]): 25 µg/mL | MIC P. vulgaris (Proteus vulgaris; [3]): 25 µg/mL | MIC S. marcescens (Serratia marcescens; [3]): 12.5 µg/mL

PRT927 (DIDDCSSTPCLNGAKCIDHPNGYECQCATGFTGVLCE; listed as Homo sapiens)
MIC (E. coli DH5α): 25 µg/mL | MIC (E. coli BL21; [4]): 50 µg/mL | MIC (Pseudomonas aeruginosa; [5]): 25 µg/mL | MIC (Klebsiella pneumonia; [6]): 12.5 µg/mL | MIC (Enterobacter cloacae; [7]): 25 µg/mL | MIC (Aeromonas hydrophila; [8]): 50 µg/mL | MIC (Citrobacter diversus; [9]): 12.5 µg/mL | MIC (Moraxella catarrhalis; [10]): 50 µg/mL | MIC (Proteus mirabilis; [11]): 25 µg/mL | MIC (Proteus vulgaris; [12]): 12.5 µg/mL | MIC (Serratia marcescens; [13]): 50 µg/mL

PRT1425 (DIDECENGGFCSGVCHNLPGTFECICGPDSALARHIGTDCD; listed as Homo sapiens)
MIC (E. coli DH5α): 12.5 µg/mL | MIC against E. coli BL21 (E. coli BL21; [1]): 50 µg/mL | MIC against P. aeruginosa (Pseudomonas aeruginosa; [2]): 12.5 µg/mL | MIC against K. pneumonia (Klebsiella pneumonia; [2]): 50 µg/mL | MIC against E. cloacae (Enterobacter cloacae; [2]): 25 µg/mL | MIC against A. hydrophila (Aeromonas hydrophila; [2]): 12.5 µg/mL | MIC against C. diversus (Citrobacter diversus; [2]): 50 µg/mL | MIC against M. catarrhalis (Moraxella catarrhalis; [2]): 12.5 µg/mL | MIC against P. mirabilis (Proteus mirabilis; [2]): 12.5 µg/mL | MIC against P. vulgaris (Proteus vulgaris; [2]): 12.5 µg/mL | MIC against S. marcescens (Serratia marcescens; [2]): 12.5 µg/mL

PRT1035 (HRAKCAPSYLFSCFNGGECVHPAFCDCRRFNATGPRCQ; listed as Homo sapiens)
MIC (E. coli DH5α): 12.5 µg/mL | MIC (E. coli BL21; [4]): 50 µg/mL | MIC (Pseudomonas aeruginosa; [5]): 12.5 µg/mL | MIC (Klebsiella pneumonia; [6]): 25 µg/mL | MIC (Enterobacter cloacae; [7]): 25 µg/mL | MIC (Aeromonas hydrophila; [8]): 50 µg/mL | MIC (Citrobacter diversus; [9]): 12.5 µg/mL | MIC (Moraxella catarrhalis; [10]): 25 µg/mL | MIC (Proteus mirabilis; [11]): 12.5 µg/mL | MIC (Proteus vulgaris; [12]): 25 µg/mL | MIC (Serratia marcescens; [13]): 50 µg/mL
